From US20210196673A1 (priority 2018, published 2021)
≈ marks a conversion by molar mass, not a printed value. Where two headings read alike, the source gives them in different places.

Tests used:
influenza virus = settings: cited from earlier work
SARS-CoV-2 [1] = assay: Secondary VYR (virus yield reduction) assay in Caco-2 cells; type: cell-based
Procedure: The secondary VYR assay in Caco-2 cells: Near-confluent cell culture monolayers of Caco-2 cells were prepared in 96-well disposable microplates the day before testing. Cells were maintained in MEM supplemented with 10% FBS. The same medium was used for antiviral assays and FBS was reduced to 2%, supplemented with 50-μg/ml gentamicin. EGCG was dissolved in serum-free MEM in a series of 2×dilutions from 100 μg/ml to 0.78 μg/ml. The EGCG diliutions were mixed and incubated with SARS-CoV-2 at 200 CCID50 (50% cell culture infectious dose) in 0.1 ml volume for 1 h prior to adding to the cell culture for 1 h absorption. Following absorption, the unabsorbed SARS-CoV-2 along with medium/EGCG was removed and fresh MEM was added to the cell culture for viral yield detection in comparison to untreated infection control. Five microwells were used per dilution: three for infected cultures and two for uninfected toxicity cultures. Controls for the experiment consist of six microwells that were infected and not treated (virus controls) and six that were untreated and uninfected (cell controls) on every plate. Medium devoid of virus was placed in toxicity control wells and cell control wells. Plates were incubated at 37° C. with 5% CO2 for 72 hours. A sample of supernatant was taken from each infected well (three replicate wells were pooled) and tested immediately. To evaluate toxicity, the plates were stained with 0.011% neutral red dye for approximately two hours at 37° C. in a 5% CO2 incubator. The neutral red medium was removed by complete aspiration, and the cells were rinsed 1× with phosphate buffered solution (PBS) to remove residual dye. The PBS is completely removed, and the incorporated neutral red was eluted with 50% Sorensen's citrate buffer/50% ethanol for at least 30 minutes. As larger the number of viable cells present in the wells, when the neutral red dye penetrated into the living cells, the more intense the red color appeared. The dye content in each well was quantified using a spectrophotometer at 540 nm wavelength. The dye content in each set of wells was converted to a percentage of dye present in untreated control wells using a Microsoft Excel computer-based spreadsheet and normalized based on the virus control. The 50% cytotoxic (CC50, cell-inhibitory) concentrations were then calculated by regression analysis.
The VYR test indicates how much EGCG inhibits virus entry and replication. Virus yielded in the presence of EGCG was titrated and compared to virus titers from the untreated virus controls. Titration of the viral samples (collected as described in the paragraph above) was performed by endpoint dilution (Reed-Muench method). Serial 1/10 dilutions of virus were made and plated into 4 replicate wells containing fresh cell monolayers of Vero 76 cells. Plates were then incubated, and cells were scored for the presence or absence of virus after distinct CPE was observed. The TCID50 values were calculated using the Reed-Muench method. The 90% (one log10) effective concentration (EC90) was calculated by regression analysis by plotting the log10 of the inhibitor concentration versus log10 of virus produced at each concentration. The quotient of CC50 divided by EC90 gave the selectivity index (SI) value. Compounds showing SI values ≥10 are considered active.

SARS-CoV-2 [2] = assay: Primary CPE assay in Vero cells (antiviral)
Vero cells = assay: Primary CPE assay in Vero cells (cytotoxicity, CC50); type: cell-based
[3] = target: SARS-CoV 3C-like protease (3CLPro) (Severe acute respiratory syndrome coronavirus, UniProt P0C6X7); settings: cited from earlier work
[4] = target: transmembrane protease serine 2 (TMPRSS2) (Homo sapiens, UniProt O15393); settings: in vitro study; cited from earlier work
transmembrane protease serine 2 (TMPRSS2), sequence (O15393 whole entry): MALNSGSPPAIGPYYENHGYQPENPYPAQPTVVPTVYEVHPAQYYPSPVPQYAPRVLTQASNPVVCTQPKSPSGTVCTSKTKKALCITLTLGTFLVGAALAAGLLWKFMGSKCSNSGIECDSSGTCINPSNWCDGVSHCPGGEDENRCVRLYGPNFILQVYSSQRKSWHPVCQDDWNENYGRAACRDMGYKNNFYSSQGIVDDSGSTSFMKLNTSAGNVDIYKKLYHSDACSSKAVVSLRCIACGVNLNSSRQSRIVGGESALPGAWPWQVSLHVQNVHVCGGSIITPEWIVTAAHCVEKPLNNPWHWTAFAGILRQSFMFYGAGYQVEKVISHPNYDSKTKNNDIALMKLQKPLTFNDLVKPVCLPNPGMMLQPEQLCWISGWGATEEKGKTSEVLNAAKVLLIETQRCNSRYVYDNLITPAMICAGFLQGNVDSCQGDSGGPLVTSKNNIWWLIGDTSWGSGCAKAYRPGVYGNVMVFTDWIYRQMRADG

[5] = Stability of powder and liquid forms; type: physicochemical; settings: for stability of powder form on storage: 5° C.
[6] = target: SARS-CoV nucleocapsid (N) protein (Severe acute respiratory syndrome coronavirus, UniProt P59595); settings: cited from earlier work
SARS-CoV nucleocapsid (N) protein, sequence (P59595 whole entry, looked up): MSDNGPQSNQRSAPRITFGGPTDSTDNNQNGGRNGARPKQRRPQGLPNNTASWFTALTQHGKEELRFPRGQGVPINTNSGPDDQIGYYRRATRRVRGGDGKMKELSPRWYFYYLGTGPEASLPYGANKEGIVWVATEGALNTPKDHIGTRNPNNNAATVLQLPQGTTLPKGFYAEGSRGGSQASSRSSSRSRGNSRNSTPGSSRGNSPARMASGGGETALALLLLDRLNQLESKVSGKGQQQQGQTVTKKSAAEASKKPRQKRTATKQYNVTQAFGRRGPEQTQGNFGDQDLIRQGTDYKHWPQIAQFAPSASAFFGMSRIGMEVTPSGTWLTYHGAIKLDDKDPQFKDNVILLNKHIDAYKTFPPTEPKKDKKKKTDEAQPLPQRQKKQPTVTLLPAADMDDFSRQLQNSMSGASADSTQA

H1N1 virus [7] = tested on: H1N1 virus
H1N1 virus [8] = type: cell-based, influenza A virus
H1N1 virus [9] = type: cell-based, influenza A virus; remark: listed apart in the source
H1N1 virus [10] = tested on: H1N1 virus; remark: listed apart in the source
MDCK cells = assay: Cell viability, MTT assay; type: cell-based; settings: 1 hour incubation
Procedure: Cell Viability: This experiment tested if EC16 formulations were associated with cytotoxicity in MDCK cells. MDCK cells were cultured in a 96 well plate until confluent. MEM serum free medium, MEM medium with 10% carrier and 20% carrier (carrier controls), or MEM medium containing 0.1% EC16 and 10% or 20% carrier was added to the wells followed by a 1 hour incubation at 35° C. with 5% CO2. The medium was then changed to 200 μl fresh MEM serum free medium with 0.2 μg/ml trypsin in each well and incubated overnight under the same condition. The plate was removed from the cell culture incubator and an MTT assay was performed according to a method described previously (Yamamoto, T., et al., Anticancer Research, 24:3065-3073 (2004)).

H1N1 virus [11] = type: cell-based, influenza A virus; remark: listed apart in the source
[12] = EGCG 50 μg/ml (0.005%), Caco-2 cells
[13] = EGCG 100 μg/ml (0.01%), Caco-2 cells

## O=C(O[C@@H]1Cc2c(O)cc(O)cc2O[C@@H]1c1cc(O)c(O)c(O)c1)c1cc(O)c(O)c(O)c1 [EGCG, (−)-epigallocatechin-3-gallate]
Influenza virus; direct contact of EGCG with virus, cell culture
  effect of direct contact with influenza virus: inactivation of viral infectivity
Influenza virus; pre-incubation of cells with EGCG, no contact with the virus
  anti-viral activity after pre-incubation of cells: does not show anti-viral activity
Caco-2 cells; Caco-2 cells, neutral red, value of b285
  CC50 (cytotoxicity): > 100 µg/mL
Caco-2 cells; Neutral Red (Toxicity) assay, value of b289
  CC50: > 100 µg/mL
SARS-CoV-2 [1]; Caco-2 cells, value of b285
  concentration that inhibited 90% of viral yield (EC90): 28 µg/mL
SARS-CoV-2 [1]; [12]
  reduction in virus titer: 1.8 log 10
  reduction of viral yield: 98.41%
SARS-CoV-2 [1]; [13]
  reduction in virus titer: > 3.6 log 10
  reduction of viral yield: > 99.975%
SARS-CoV-2 [1]; EGCG at or lower than 25 μg/ml (0.0025%), Caco-2 cells
  antiviral activity: the activity was not detected
SARS-CoV-2 [1]; concentration 0.78 μg/ml
  Viral titer of EGCG treated TCID50 values: 5.3 lon10
SARS-CoV-2 [1]; concentration 1.56 μg/ml
  Viral titer of EGCG treated TCID50 values: 5.0 lon10
SARS-CoV-2 [1]; concentration 3.13 μg/ml
  Viral titer of EGCG treated TCID50 values: 5.0 lon10
SARS-CoV-2 [1]; concentration 6.25 μg/ml
  Viral titer of EGCG treated TCID50 values: 5.5 lon10
SARS-CoV-2 [1]; concentration 12.5 μg/ml
  Viral titer of EGCG treated TCID50 values: 5.3 lon10
SARS-CoV-2 [1]; concentration 25 μg/ml
  Viral titer of EGCG treated TCID50 values: 5.0 lon10
SARS-CoV-2 [1]; concentration 50 μg/ml
  Viral titer of EGCG treated TCID50 values: 3.5 lon10
SARS-CoV-2 [1]; concentration 100 μg/ml
  Viral titer of EGCG treated TCID50 values: <1.7 lon10
SARS-CoV-2 [1]; selectivity index
  SIgo (CC50/EC90): > 23
SARS-CoV-2 [2]; neutral red (NR) readout
  EC50, inhibition of CPE (NR): 0.27 µg/mL
SARS-CoV-2 [2]; visual (VIS) readout
  EC50, inhibition of CPE (VIS): 0.23 µg/mL
Vero cells; neutral red (NR) readout
  CC50 (NR): 2.3 µg/mL (≈ 5.02 µM)
Vero cells; visual (VIS) readout
  CC50 (VIS): 3.2 µg/mL (≈ 6.98 µM)
[3]
  inhibition of 3C^pro activity: 80%
  inhibition of SARS-CoV 3C-like protease: significantly inhibited
[4]
  inhibition of TMPRSS2: inhibited TMPRSS2
[5]; aqueous solution
  stability in aqueous solution: not stable
[5]
  stability in dry powder form: stable
  stability of powder form on storage: stable at 5 °C for two years

## O=C(O[C@@H]1Cc2c(O)cc(O)cc2O[C@H]1c1cc(O)c(O)c(O)c1)c1cc(O)c(O)c(O)c1 [GCG, gallocatechin gallate]
[6]
  inhibitory effect against SARS-CoV nucleocapsid (N) protein: remarkable inhibitory effect
[3]
  inhibition of SARS-CoV 3C-like protease: significantly inhibited

## (−)-epigallocatechin-3-gallate-palmitate [EC16]
H1N1 virus [7]; 0.01% EC16 in 10% carrier, 1 hour pre-treatment, n=4
  viral titer (viability), % of control: 100%
H1N1 virus [7]; 0.01% EC16 in 20% carrier, 1 hour pre-treatment
  infectivity, % of control: 2.3%±0.9
H1N1 virus [7]; 0.1% EC16 in 10% carrier, 1 hour pre-treatment
  infectivity, % of control: 10.5%±3.6
H1N1 virus [7]; 0.1% EC16 in 20% carrier
  reduction in titer: 42 fold
H1N1 virus [7]; 0.1% EC16 in 20% carrier, 1 hour pre-treatment, n=7
  infectivity, % of control: 2.4%±1.6
H1N1 virus [7]; EC16 0 to 0.1% in 2% DMSO instead of carrier
  viral titer in comparison to control: did not result in a statistically significant difference
H1N1 virus [8]; 0.01% EC16 in 10% carrier, 1 minute contact, n=3
  H1N1 infectivity, % of control: 20.5%±17.1
H1N1 virus [8]; 0.01% EC16 in 20% carrier, separate experiments
  H1N1 infectivity, % of control: 7.3%±9.2
H1N1 virus [8]; 0.1% EC16 in 10% carrier, 1 minute contact, first three replicates
  H1N1 infectivity, % of control: 6.1%±3.0
H1N1 virus [8]; 0.1% EC16 in 10% carrier, additional three replicate experiments
  H1N1 infectivity, % of control: 3.8%±1.5
H1N1 virus [8]; 0.1% EC16 in 10% carrier, overall mean (n=6)
  H1N1 infectivity, % of control: 5.0%±2.4
H1N1 virus [8]; 0.1% EC16 in 20% carrier, 1 minute contact
  H1N1 infectivity, % of control: 2.4%±1.1
H1N1 virus [9]
  viral TCID50, % of control: 15.4%±15.2
H1N1 virus [10]; 0.01% EC16 in 10% carrier, 10 minutes
  remaining viability (infectivity), mean: 48.4%±46.4
H1N1 virus [10]; 0.01% EC16 in 20% carrier, 30 minutes
  infectivity, mean % of control: 7.6%±7.2
H1N1 virus [10]; 0.1% EC16 in 10% carrier, 10 minutes
  infectivity, mean % of control: 9.5%±1.4
H1N1 virus [10]; 0.1% EC16 in 20% carrier, 10 minutes
  infectivity, mean % of control: 12.1%±5.8
H1N1 virus [10]; 0.1% EC16 in 20% carrier, 30 minutes
  infectivity, mean % of control: 0.9%±0.7
MDCK cells; 0.1% EC16 in 10% carrier
  cell viability (MTT) versus MEM control: not statistically different from the MEM control
MDCK cells; 0.1% EC16 in 20% carrier
  cell viability (MTT) versus MEM control: not statistically different from the MEM control
[5]
  stability in dry powder form: stable
  stability of powder form on storage: stable at 5 °C for two years
[5]; liquid formulations
  stability in proper liquid formulations: stable
H1N1 virus [11]; 0.05% EC16, washed and 1 hour without EC16
  cells protected from H1N1 infection: 90%
H1N1 virus [11]; 0.1% EC16, 2 hours after first application, washed and 1 hour without EC16
  block of H1N1 infection: almost completely blocked
